Source: US4399283A, “Pharmaceutical salts of 4'-(9-acridinylamino)-methanesulfon-m-anisidide” (Warner Lambert Company, priority 1981, dated 1983)

What was measured:
[1] = tested on: mice; details: literature (Cain et al.); cited from earlier work
[2] = assay type: physicochemical; details: 10 mg/ml, after storing at 5 °C
Excerpt: The salts of th present invention allow one to prepare solutions of m-AMSA without the aid of dimethylacetamide. Depending upon the salt, concentration and temperature,standing may result in certain of the solutions of salts forming gels. However, a salt need only remain in solution for a period long enough for it to be administered to a patient.

Structure (SMILES) | Activity in treating mammals in studies using mice [1] | Return of gelled solution to fluid state by warming to room temperature and shaking [2]
COc1cc(NS(C)(=O)=O)ccc1Nc1c2ccccc2nc2ccccc12 [m-AMSA, 4'-(9-acridinylamino)-methanesulfon-m-anisidide] | high degree of activity | 
COc1cc(NS(C)(=O)=O)ccc1Nc1c2ccccc2nc2ccccc12 [gluconate, 4'-(9-acridinylamino)methanesulfon-m-anisidide D-gluconate] |  | this could not be achieved
